Consider 19 molecules from patent US20250163047A1, “HETEROCYCLIC COMPOUNDS, COMPOSITIONS THEREOF, AND METHODS OF TREATMENT THEREWITH” (BeiGene, Ltd., priority 2022, published 2025).

Test [1] has as its target T1, Cbl-b (aa36-427) (Homo sapiens, UniProt Q13191).
T1 construct: Cbl-b (aa36-427, in-house); made in house
Description: Co-expressed Cbl-b with BirA biochemical assay (CBLB/E2-Ub binding, HTRF). The settings on record: 0.6 nM Cbl-b co-expressed with BirA, HTRF; read-out: co-express CBLB/E2-Ub-binding assay IC50. From the text: (§1) The assay in the absence of a Cbl-b/Cbl inhibitor, where phosphorylation of Cbl-b/Cbl by the Src kinase allows UbcH5B-Ub to bind to Cbl-b/Cbl and brings the Bodipy-Fluorescein tagged ubiquitin in proximity to the streptavidin-terbium bound to the N-terminal biotinylated Avi-tagged Cbl-b/Cbl. […] The lack of a FRET signal indicates Cbl-b/Cbl is inhibited by the Cbl-b/Cbl inhibitor.

Test [2] addresses T2, Cbl (aa49-434) (Homo sapiens, UniProt P22681).
T2 construct: Cbl (aa49-434, in-house); made in house
T2 sequence (P22681 49-434): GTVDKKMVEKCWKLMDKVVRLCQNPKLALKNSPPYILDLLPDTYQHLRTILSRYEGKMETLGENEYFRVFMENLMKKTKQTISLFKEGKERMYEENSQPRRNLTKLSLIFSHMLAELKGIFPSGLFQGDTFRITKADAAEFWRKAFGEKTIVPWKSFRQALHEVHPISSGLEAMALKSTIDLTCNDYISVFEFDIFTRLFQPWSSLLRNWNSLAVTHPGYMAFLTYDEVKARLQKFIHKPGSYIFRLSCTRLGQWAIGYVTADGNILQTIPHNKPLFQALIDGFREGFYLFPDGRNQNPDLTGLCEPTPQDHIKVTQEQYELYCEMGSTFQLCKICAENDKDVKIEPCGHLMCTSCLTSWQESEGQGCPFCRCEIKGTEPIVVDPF
Description: Co-expressed Cbl with BirA biochemical assay (CBL/E2-Ub binding, HTRF). The settings on record: 0.6 nM Cbl co-expressed with BirA, read-out: co-express CBL/E2-Ub-binding assay IC50.
From the text: as §1

Molecules are shown by their SMILES.

T1 sequence (Q13191 36-427): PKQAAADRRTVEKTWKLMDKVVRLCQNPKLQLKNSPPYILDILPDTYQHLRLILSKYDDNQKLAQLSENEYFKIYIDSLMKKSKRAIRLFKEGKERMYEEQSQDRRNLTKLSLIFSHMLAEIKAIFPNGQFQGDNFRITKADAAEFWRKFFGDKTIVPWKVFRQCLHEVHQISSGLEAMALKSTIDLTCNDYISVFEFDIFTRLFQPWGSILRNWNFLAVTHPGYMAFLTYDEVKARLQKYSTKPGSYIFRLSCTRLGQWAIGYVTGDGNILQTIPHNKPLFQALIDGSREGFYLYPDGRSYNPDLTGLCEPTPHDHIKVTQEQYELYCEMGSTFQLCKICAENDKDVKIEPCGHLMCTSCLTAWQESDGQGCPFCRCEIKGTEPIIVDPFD

Consider `Cn1cnnc1[C@]1(c2cncc(NC(=O)c3cc(CNC4(C)CC4)c4ccsc4n3)c2)C[C@H](C)C1` [Compound B51, N-(5-((1s, 3s)-3-methyl-1-(4-methyl-4H-1,2,4-triazol-3-yl)cyclobutyl)pyridin-3-yl)-4-(((1-methylcyclopropyl)amino)methyl)thieno[2,3-b]pyridine-6-carboxamide], for which the IC50 in test [1] is 1.4 nM; in test [2], 13 nM.
With `C[C@H]1CCCN(Cc2cc(C(=O)Nc3cccc([C@]4(Cc5nncn5C)C[C@@H](C#N)C4)c3)nc3c2CCC3(C)C)C1` [Compound C8, N-(3-((1r,3S)-3-cyano-1-((4-methyl-4H-1,2,4-triazol-3-yl)methyl)cyclobutyl)phenyl)-7,7-dimethyl-4-(((S)-3-methylpiperidin-1-yl)methyl)-6,7-dihydro-5H-cyclopenta[b]pyridine-2-carboxamide], the IC50 in test [1] came out at 1 nM; in test [2] it was 1.8 nM.
Take `C[C@H](NCc1cc(C(=O)Nc2cccc([C@]3(c4nncn4C)C[C@@H](C)C3)c2)c2ncc(Cl)n2c1)C1CCC1` [Compound A69, 3-chloro-6-((((S)-1-cyclobutylethyl)amino)methyl)-N-(3-((1s,3R)-3-methyl-1-(4-methyl-4H-1,2,4-triazol-3-yl)cyclobutyl)phenyl)imidazo[1,2-a]pyridine-8-carboxamide]: the IC50 in test [1] turned out to be 0.8 nM; in test [2], 1.7 nM.
Take `Cn1cnnc1[C@]1(c2cccc(NC(=O)c3cc(CNCC4CCC(F)(F)C4)c4c(n3)C(C)(C)CC4)c2)C[C@H](CC#N)C1` (some centres unmarked) [Compound C16, N-(3-((1s, 3s)-3-(cyanomethyl)-1-(4-methyl-4H-1,2,4-triazol-3-yl)cyclobutyl)phenyl)-4-((((3,3-difluorocyclopentyl)methyl)amino)methyl)-7,7-dimethyl-6,7-dihydro-5H-cyclopenta[b]pyridine-2-carboxamide]: the IC50 in test [1] was found to be 1.7 nM; in test [2] it was 5.3 nM.
As to `Cc1cnc2c(C(=O)Nc3cncc([C@]4(c5nncn5C)C[C@@H](C)C4)c3)cc(CN[C@@H](C)C3CCC3)cn12` [Compound A63, 6-({[(1S)-1-cyclobutylethyl]amino}methyl)-3-methyl-N-{5-[(1r, 3s)-3-methyl-1-(4-methyl-1,2,4-triazol-3-yl)cyclobutyl]pyridin-3-yl}imidazo[1,2-a]pyridine-8-carboxamide], the IC50 was 1.1 nM in test [1] and 1.8 nM in test [2].
The like results for `C[C@@H]1CN(Cc2cc(C(=O)Nc3cccc([C@]4(c5nncn5C)C[C@@H](CC#N)C4)c3)nc3c2NCC3(C)C)CC[C@@H]1F` [Compound C47, 7-{[(3R,4S)-4-fluoro-3-methylpiperidin-1-yl]methyl}-3,3-dimethyl-N-{3-[(1s, 3s)-3-(cyanomethyl)-1-(4-methyl-1,2,4-triazol-3-yl)cyclobutyl]phenyl}-1H,2H-pyrrolo[3,2-b]pyridine-5-carboxamide] were, in that order, 0.7 nM and 1.2 nM.
Regarding `Cn1cnnc1[C@]1(c2cncc(NC(=O)c3cc(CNCC4CCC4)c4ccsc4n3)c2)C[C@H](C)C1` [Compound B15, 4-(((cyclobutylmethyl)amino)methyl)-N-(5-((1s, 3s)-3-methyl-1-(4-methyl-4H-1,2,4-triazol-3-yl)cyclobutyl)pyridin-3-yl)thieno[2,3-b]pyridine-6-carboxamide], the figures for the IC50 in test [1] and in test [2] were 0.9 nM and 1.9 nM, respectively.
The matching figures for `C[C@H]1CCCN(Cc2cc(C(=O)Nc3cccc([C@]4(c5nncn5C)C[C@@H](CC#N)C4)c3)nc3cc[nH]c23)C1` [Compound B5, N-(3-((1s,3R)-3-(cyanomethyl)-1-(4-methyl-4H-1,2,4-triazol-3-yl)cyclobutyl)phenyl)-7-(((S)-3-methylpiperidin-1-yl)methyl)-1H-pyrrolo[3,2-b]pyridine-5-carboxamide]: 1.6 nM and 16 nM.
The like results for `Cn1cnnc1[C@]1(c2cccc(NC(=O)c3cc(CNCC4CCC4)cn4ccnc34)c2)C[C@H](CC#N)C1` [Compound A43, N-(3-((1s, 3s)-3-(cyanomethyl)-1-(4-methyl-4H-1,2,4-triazol-3-yl)cyclobutyl)phenyl)-6-(((cyclobutylmethyl)amino)methyl)imidazo[1,2-a]pyridine-8-carboxamide] were, in that order, 2 nM and 12 nM.
As for `C[C@H](NCc1cc(C(=O)Nc2cccc([C@]3(c4nncn4C)C[C@@H](CC#N)C3)c2)c2ncc(Cl)n2c1)C1CCCC1` [Compound A34, 3-chloro-N-(3-((1s,3R)-3-(cyanomethyl)-1-(4-methyl-4H-1,2,4-triazol-3-yl)cyclobutyl)phenyl)-6-((((S)-1-cyclopentylethyl)amino)methyl)imidazo[1,2-a]pyridine-8-carboxamide], the IC50 stood at 2.6 nM in test [1] and 7.8 nM in test [2].
The like results for `Cn1cnnc1[C@]1(c2cccc(NC(=O)c3cc(CNC4(C)CC4)cc4c(Cl)cnn34)c2)C[C@H](C)C1` [Compound A96, 3-chloro-N-(3-((1s, 3s)-3-methyl-1-(4-methyl-4H-1,2,4-triazol-3-yl)cyclobutyl)phenyl)-5-(((1-methylcyclopropyl)amino)methyl)pyrazolo[1,5-a]pyridine-7-carboxamide] were, in that order, 0.5 nM and 3.2 nM.
The matching figures for `Cn1cnnc1[C@]1(c2cccc(NC(=O)c3cc(CNC4(C)CC4)cn4c(Cl)cnc34)c2)C[C@H](C)C1` [Compound A67, 3-chloro-N-(3-((1s, 3s)-3-methyl-1-(4-methyl-4H-1,2,4-triazol-3-yl)cyclobutyl)phenyl)-6-(((1-methylcyclopropyl)amino)methyl)imidazo[1,2-a]pyridine-8-carboxamide]: 0.5 nM and 2.8 nM.
The matching figures for `Cn1cnnc1[C@]1(c2cccc(NC(=O)c3cc(CNCC4CCCC4)cn4c(F)cnc34)c2)C[C@H](C)C1` [Compound A51, 6-(((cyclopentylmethyl)amino)methyl)-3-fluoro-N-(3-((1s, 3s)-3-methyl-1-(4-methyl-4H-1,2,4-triazol-3-yl)cyclobutyl)phenyl)imidazo[1,2-a]pyridine-8-carboxamide]: 1.5 nM and 4.3 nM.
For `C[C@H](NCc1cc(C(=O)Nc2cccc([C@]3(c4nncn4C)C[C@@H](C)C3)c2)nc2cc[nH]c12)C1CC1` [Compound B3, 7-((((S)-1-cyclopropylethyl)amino)methyl)-N-(3-((1s,3R)-3-methyl-1-(4-methyl-4H-1,2,4-triazol-3-yl)cyclobutyl)phenyl)-1H-pyrrolo[3,2-b]pyridine-5-carboxamide], the IC50 in test [1] came to 0.7 nM; in test [2], 1.8 nM.
As for `Cn1cnnc1[C@]1(c2cccc(NC(=O)c3cc(CNCC4CCC4)c4c(n3)C(C)(C)CN4)c2)C[C@H](C)C1` [Compound C49, 7-(((cyclobutylmethyl)amino)methyl)-3,3-dimethyl-N-(3-((1s, 3s)-3-methyl-1-(4-methyl-4H-1,2,4-triazol-3-yl)cyclobutyl)phenyl)-2,3-dihydro-1H-pyrrolo[3,2-b]pyridine-5-carboxamide], the values for the IC50 in test [1] and in test [2] were 2 nM and 5.9 nM, respectively.
The like results for `Cn1cnnc1[C@]1(c2cccc(NC(=O)c3cc(CNCC4CCC4)cn4c(Cl)cnc34)c2)C[C@H](C)C1` [Compound A57, 3-chloro-6-(((cyclobutylmethyl)amino)methyl)-N-(3-((1s, 3s)-3-methyl-1-(4-methyl-4H-1,2,4-triazol-3-yl)cyclobutyl)phenyl)imidazo[1,2-a]pyridine-8-carboxamide] were, in that order, 0.6 nM and 1.8 nM.
The like results for `CC(C)CNCc1cc(C(=O)Nc2cccc([C@]3(c4nncn4C)C[C@@H](C)C3)c2)c2ncc(F)n2c1` [Compound A62, 3-fluoro-6-((isobutylamino)methyl)-N-(3-((1s, 3s)-3-methyl-1-(4-methyl-4H-1,2,4-triazol-3-yl)cyclobutyl)phenyl)imidazo[1,2-a]pyridine-8-carboxamide] were, in that order, 1.1 nM and 7 nM.
For the molecule `C[C@H]1CCCN(Cc2cc(C(=O)Nc3cccc([C@]4(c5nncn5C)C[C@@H](CC#N)C4)c3)n3ncc(F)c3c2)C1` [Compound A20, 3-fluoro-5-{[(3S)-3-methylpiperidin-1-yl]methyl}-N-{3-[(1s, 3s)-3-(cyanomethyl)-1-(4-methyl-1,2,4-triazol-3-yl)cyclobutyl]phenyl}pyrazolo[1,5-a]pyridine-7-carboxamide], the IC50 in test [1] worked out at 3 nM; in test [2] it was 26.5 nM.
`C[C@@H]1CN(Cc2cc(C(=O)Nc3cncc([C@]4(c5nncn5C)C[C@@H](C)C4)c3)c3nccn3c2)CC[C@@H]1F` [Compound A54, 6-(((3R,4S)-4-fluoro-3-methylpiperidin-1-yl)methyl)-N-(5-((1s,3S)-3-methyl-1-(4-methyl-4H-1,2,4-triazol-3-yl)cyclobutyl)pyridin-3-yl)imidazo[1,2-a]pyridine-8-carboxamide]: the IC50 in test [1] stood at 1.9 nM; in test [2] it was 6 nM.
